Test results published in US6638953B2, “Indole derivatives as 5-HT receptor antagonist” (SmithKline Beecham p.l.c., priority 1995, dated 2003).
Where a name gives a salt, the structure may show the parent alone.

Experiments:
[1] = test system: MCPP-induced Hypolocomotion; assay: Reversal of MCPP-induced hypolocomotion; type: in vivo; settings: po, procedure of WO 94/04533, read-out: ID50 (the source's name)
From the text: Reversal of MCPP-induced Hypolocomotion

| melting point [°C] | Compound | ED50 [1] [mg/kg] |
| --- | --- | --- |
| 221 to 223 | CSc1cc2c(cc1C(F)(F)F)N(C(=O)Nc1ccc(C)c(-c3cccnc3)c1)CC2 [Example 24, 1-(4-Methyl-3-(pyrid-3-yl)phenylcarbamoyl)-5-thiomethyl-6-trifluoromethyl Indoline] | 0.5 to 5.5 |
| 210 to 213 | COc1cc2c(cc1C(F)(F)F)N(C(=O)Nc1ccc(Cl)c(-c3cccnc3)c1)CC2 [Example 26, 1-(4-Chloro-3-(pyrid-3-yl)phenylcarbamoyl)-5-methoxy-6-trifluoromethylindoline] | 0.5 to 5.5 |
| 205 to 207 | CCc1cc(NC(=O)N2CCc3cc(OC)c(C(F)(F)F)cc32)cc(-c2cccnc2)c1 [Example 42, 1-[5-Ethyl-3-(pyrid-3-yl)phenylcarbamoyl]-5-methoxy-6-trifluoromethylindoline] | 0.5 to 5.5 |
| 193 to 194 | CSc1cc2c(cc1C(F)(F)F)N(C(=O)Nc1ccc(Oc3cccnc3)nc1)CC2 [Example 52] | 0.5 to 5.5 |
| 202 to 204 | COc1cc2c(cc1C(F)(F)F)N(C(=O)Nc1ccc(Oc3cccnc3)nc1)CC2 [Example 53, 5-Methoxy-6-trifluoromethyl-1-[6(pyridin-3-yloxy)pyridin-3-ylcarbamoyl]indoline] | 0.5 to 5.5 |
| 205 to 207 | COc1cc2c(cc1C(F)(F)F)N(C(=O)Nc1ccc(OCc3ccncc3)cc1)CC2 [Example 54, 5-Methoxy-6-trifluoromethyl-1-[4-(pyridin-4-ylmethyloxy)phenyl Carbamoyl]indoline] | 0.5 to 5.5 |
| 187 to 189 | COc1cc2c(cc1C(F)(F)F)N(C(=O)Nc1ccc(OCc3ccncc3)nc1)CC2 [Example 55, 5-Methoxy-6-trifluoromethyl-1-[6-(pyridin-4-ylmethyloxy)pyridin-3-ylcarbamoyl]indoline] | 0.5 to 5.5 |
| 210 to 212 | COc1cc2c(cc1C(F)(F)F)N(C(=O)Nc1ccc(F)c(-c3cccnc3)c1)CC2 [Example 77, 1-[4-Fluoro-3-(3-pyridyl)phenylcarbamoyl]-5-methoxy-6-trifluoromethyl Indoline] | 0.5 to 5.5 |
| 227 to 230 | COc1cc2c(cc1C(F)(F)F)N(C(=O)Nc1ccc(Oc3cccnc3C)nc1)CC2 [Example 81, 5-Methoxy-6-trifluoromethyl-1-[6-(2-methylpyridin-3-yloxy)pyridin-3-ylcarbamoyl]indoline] | 0.5 to 5.5 |

The next lines start with the compound.

| Compound | melting point [°C] | ED50 [1] [mg/kg] |
| --- | --- | --- |
| CSc1cc2c(cc1C(F)(F)F)N(C(=O)Nc1cccc(-c3cccnc3)c1)CC2 [Example 3, 1-[(3-Pyridyl)-3-phenyl Carbamoyl]-5-methylthio-6-trifluoromethyl Indoline] | 208 to 210 | 0.5 to 5.5 |
| COc1cc2c(cc1C(F)(F)F)N(C(=O)Nc1ccc(C)c(-c3cccnc3)c1)CC2 [Example 7, 1-[4-Methyl-3-(3-Pyridyl)phenylcarbamoyl]-5-methoxy-6-trifluoromethyl Indoline] | 211 to 212 | 0.5 to 5.5 |
| COc1cc2c(cc1C(F)(F)F)N(C(=O)Nc1cc(F)cc(-c3cccnc3)c1)CC2 [Example 8, 1-[3-Fluoro-5-(3-pyridyl)phenylcarbamoyl]-5-methoxy-6-trifluoromethyl Indoline] |  | 0.5 to 5.5 |
| COc1cc2c(cc1C(F)(F)F)N(C(=O)Nc1cc(F)cc(-c3cnccc3C)c1)CC2 [Example 21, 1-(3-Fluoro5-(4-methyl-3-pyridyl)phenylcarbamoyl)-5-methoxy-6-trifluoromethylindoline] | 191 to 195 | 0.5 to 5.5 |
| CSc1cc2c(cc1C(F)(F)F)N(C(=O)Nc1cc(F)cc(-c3cccnc3)c1)CC2 [Example 25, 1-(3-Fluoro-5-(pyrid-3-yl)phenylcarbamoyl)5-thiomethyl-6-trifluoromethyl-indoline Hydrochloride] |  | 0.5 to 5.5 |
| COc1ccc(NC(=O)N2CCc3cc(OC)c(C(F)(F)F)cc32)cc1-c1cccnc1 [Example 31, 1-[4-Methoxy-3(pyrid-3-yl)phenylcarbamoyl]-5-methoxy-6-trifluoromethylindoline] |  | 0.5 to 5.5 |
| COc1cc2c(cc1C(F)(F)F)N(C(=O)Nc1cccc(-c3cncnc3)c1)CC2 [Example 40, 1-[3-(5-Pyrimidyl)phenylcarbamoyl]-5-methoxy-6-trifluoromethyl-indoline] |  | 0.5 to 5.5 |
| COc1cc2c(cc1C(F)(F)F)N(C(=O)Nc1cc(F)cc(-c3cncnc3)c1)CC2 [Example 78, 1-[3-Fluoro-5-(pyrimidin-5-yl)phenylcarbamoyl]-5-methoxy-6-trifluoromethyl Indoline] |  | 0.5 to 5.5 |
| COc1cc2c(cc1C(F)(F)F)N(C(=O)Nc1ccc(Cl)c(-c3cnccc3C)c1)CC2 [Example 79, 1-(4-Chloro-3-(4-methyl-3-pyridyl)phenylcarbamoyl]-5-methoxy-6-trifluoromethylindoline] |  | 0.5 to 5.5 |
| COc1cc2c(cc1C(F)(F)F)N(C(=O)Nc1cc3c(c(-c4cccnc4)c1)OCC3)CC2 [Example 80, 1-[2,3-Dihydro-7-(pyrid-3-yl)benzofuran-5-ylcarbamoyl]-5-methoxy-6-trifluoromethyl Indoline] |  | 0.5 to 5.5 |
